Results from ChEMBL document CHEMBL1201862, “PubChem BioAssay data set” (2004).
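In this assay, cells in 96-well plates receive the compound at five concentrations for 48 hours. Endpoints are linearly interpolated between the surrounding concentrations. The concentration for 50% growth inhibition is given as GI50.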 Calls of active or inactive are those of the source. No stated cut-off is given here; in the data, active = GI50 up to about 1.1 µM and inactive = higher.

Assays:
Assay in all cases: NCI-60 cell line screen, 48 h
TK-10 = system: TK-10
DLD-1 = system: DLD-1
UO-31 = system: UO-31
M14 = system: M14
DMS-114 = system: DMS-114
LXFL 529 = system: LXFL 529
SK-MEL-2 = system: SK-MEL-2
HOP-92 = system: HOP-92
HCT-116 = system: HCT-116
EKVX = system: EKVX
SK-MEL-28 = system: SK-MEL-28
786-0 = system: 786-0
Malme-3M = system: Malme-3M
COLO 205 = system: COLO 205
CAKI-1 = system: CAKI-1
OVCAR-3 = system: OVCAR-3
OVCAR-5 = system: OVCAR-5
NCI-H522 = system: NCI-H522
KM-20L2 = system: KM-20L2
UACC-257 = system: UACC-257
A549 = system: A549
SF-295 = system: SF-295
NCI-H226 = system: NCI-H226
HCT-15 = system: HCT-15
SK-MEL-5 = system: SK-MEL-5
HL-60 = system: HL-60
SK-OV-3 = system: SK-OV-3
SNB-78 = system: SNB-78
SF-539 = system: SF-539
UACC-62 = system: UACC-62
A498 = system: A498
KM12 = system: KM12
SW-620 = system: SW-620
OVCAR-4 = system: OVCAR-4
DMS-273 = system: DMS-273
OVCAR-8 = system: OVCAR-8
NCI-H460 = system: NCI-H460
SN12C = system: SN12C
ACHN = system: ACHN
LOX IMVI = system: LOX IMVI
SNB-75 = system: SNB-75
SR = system: SR
M19-MEL = system: M19-MEL
NCI-H23 = system: NCI-H23
SF-268 = system: SF-268
HT-29 = system: HT-29
RXF 393 = system: RXF 393
HOP-62 = system: HOP-62
K562 = system: K562
HOP-18 = system: HOP-18
MOLT-4 = system: MOLT-4
U-251 = system: U-251
SNB-19 = system: SNB-19
RPMI-8226 = system: RPMI-8226
HCC 2998 = system: HCC 2998
IGROV-1 = system: IGROV-1
CCRF-CEM = system: CCRF-CEM
XF498 = system: XF498

## CCCC(=O)Oc1ccc(/C=N/NC(N)=S)nc1
TK-10
  GI50: > 100 µM (inactive)
DLD-1
  GI50: > 100 µM (inactive)
UO-31
  GI50: 60.1 µM (inactive)
M14
  GI50: 98.6 µM (inactive)
DMS-114
  GI50: 38.2 µM (inactive)
LXFL 529
  GI50: > 100 µM (inactive)
SK-MEL-2
  GI50: > 100 µM (inactive)
HOP-92
  GI50: > 100 µM (inactive)
HCT-116
  GI50: > 100 µM (inactive)
EKVX
  GI50: > 100 µM (inactive)
SK-MEL-28
  GI50: > 100 µM (inactive)
786-0
  GI50: 37 µM (inactive)
Malme-3M
  GI50: > 100 µM (inactive)
COLO 205
  GI50: > 100 µM (inactive)
CAKI-1
  GI50: > 100 µM (inactive)
OVCAR-3
  GI50: > 100 µM (inactive)
OVCAR-5
  GI50: > 100 µM (inactive)
NCI-H522
  GI50: 69 µM (inactive)
KM-20L2
  GI50: > 100 µM (inactive)
UACC-257
  GI50: > 100 µM (inactive)
A549
  GI50: > 100 µM (inactive)
SF-295
  GI50: > 100 µM (inactive)
NCI-H226
  GI50: > 100 µM (inactive)
HCT-15
  GI50: > 100 µM
SK-MEL-5
  GI50: > 100 µM (inactive)
HL-60
  GI50: 45.1 µM (inactive)
SK-OV-3
  GI50: > 100 µM (inactive)
SNB-78
  GI50: > 100 µM (inactive)
SF-539
  GI50: 36.5 µM (inactive)
UACC-62
  GI50: 64.1 µM (inactive)
A498
  GI50: > 100 µM (inactive)
KM12
  GI50: > 100 µM (inactive)
SW-620
  GI50: > 100 µM (inactive)
OVCAR-4
  GI50: > 100 µM (inactive)
DMS-273
  GI50: > 100 µM (inactive)
OVCAR-8
  GI50: 41.8 µM (inactive)
NCI-H460
  GI50: > 100 µM (inactive)
SN12C
  GI50: > 100 µM (inactive)
ACHN
  GI50: 35.6 µM (inactive)
LOX IMVI
  GI50: 54.3 µM (inactive)
SNB-75
  GI50: > 100 µM (inactive)
SR
  GI50: 30 µM (inactive)
M19-MEL
  GI50: > 100 µM (inactive)
NCI-H23
  GI50: > 100 µM (inactive)
SF-268
  GI50: 60 µM (inactive)
HT-29
  GI50: > 100 µM (inactive)
RXF 393
  GI50: > 100 µM (inactive)
HOP-62
  GI50: > 100 µM (inactive)
K562
  GI50: > 100 µM (inactive)
HOP-18
  GI50: > 100 µM (inactive)
MOLT-4
  GI50: 46.8 µM (inactive)
U-251
  GI50: > 100 µM (inactive)
SNB-19
  GI50: > 100 µM (inactive)
RPMI-8226
  GI50: > 100 µM (inactive)
HCC 2998
  GI50: > 100 µM (inactive)
IGROV-1
  GI50: > 100 µM (inactive)
CCRF-CEM
  GI50: 25.5 µM (inactive)

## N#Cc1c(-c2ccccc2)c(-c2ccccc2)cc2c(=O)c3ccc(Cl)cc3[nH]c12
TK-10
  GI50: > 100 µM (inactive)
DLD-1
  GI50: > 100 µM (inactive)
UO-31
  GI50: > 100 µM (inactive)
LXFL 529
  GI50: > 100 µM (inactive)
SK-MEL-2
  GI50: > 100 µM (inactive)
HOP-92
  GI50: > 100 µM (inactive)
HCT-116
  GI50: > 100 µM (inactive)
EKVX
  GI50: > 100 µM (inactive)
SK-MEL-28
  GI50: > 100 µM (inactive)
786-0
  GI50: > 100 µM (inactive)
Malme-3M
  GI50: > 100 µM (inactive)
COLO 205
  GI50: > 100 µM (inactive)
OVCAR-3
  GI50: > 100 µM (inactive)
OVCAR-5
  GI50: > 100 µM (inactive)
KM-20L2
  GI50: > 100 µM (inactive)
UACC-257
  GI50: > 100 µM (inactive)
XF498
  GI50: > 100 µM (inactive)
A549
  GI50: > 100 µM (inactive)
SF-295
  GI50: > 100 µM (inactive)
NCI-H226
  GI50: > 100 µM (inactive)
HCT-15
  GI50: > 100 µM
HL-60
  GI50: > 100 µM (inactive)
SK-OV-3
  GI50: > 100 µM (inactive)
SF-539
  GI50: > 100 µM (inactive)
UACC-62
  GI50: > 100 µM (inactive)
SW-620
  GI50: > 100 µM (inactive)
DMS-273
  GI50: > 100 µM (inactive)
OVCAR-8
  GI50: > 100 µM (inactive)
NCI-H460
  GI50: > 100 µM (inactive)
SN12C
  GI50: > 100 µM (inactive)
ACHN
  GI50: > 100 µM (inactive)
SNB-75
  GI50: > 100 µM (inactive)
SR
  GI50: > 100 µM (inactive)
M19-MEL
  GI50: > 100 µM (inactive)
NCI-H23
  GI50: > 100 µM (inactive)
SF-268
  GI50: > 100 µM (inactive)
HT-29
  GI50: > 100 µM (inactive)
RXF 393
  GI50: > 100 µM (inactive)
HOP-62
  GI50: > 100 µM (inactive)
HOP-18
  GI50: > 100 µM (inactive)
MOLT-4
  GI50: > 100 µM (inactive)
U-251
  GI50: > 100 µM (inactive)
SNB-19
  GI50: > 100 µM (inactive)
RPMI-8226
  GI50: > 100 µM (inactive)
HCC 2998
  GI50: > 100 µM (inactive)
IGROV-1
  GI50: > 100 µM (inactive)
CCRF-CEM
  GI50: > 100 µM (inactive)
